Laboratory results taken from PMC3562233 (PLoS ONE, 2013).
Where “and” joins values, the source holds several entries; their conditions need not be identical. Equal entries are not always repeated. Entries after “also recorded” stand apart in the source; their conditions may differ. Structures can show the parent of a compound that is named as a salt. Where two headings read alike, the source gives them in different places.

Legend:
[1] = target: T1, WT M2 (Influenza A virus, UniProt P0DOF5); assay: cell-based; set-up: expressed in transfected cells; host or cells: Saccharomyces cerevisiae, multicopy plasmid, GAL1 promoter; conditions: for EC50: yeast expressing WT M2, growth measured after 40 h; for growth of the strain expressing WT M2: 27% of control without amantadine, 48 h
Target sequence in this assay (P0DOF5 whole entry): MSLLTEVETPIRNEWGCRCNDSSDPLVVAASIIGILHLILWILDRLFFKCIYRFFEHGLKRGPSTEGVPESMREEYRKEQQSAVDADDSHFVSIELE

[2] = target: T1, WT M2; assay: cell-based; conditions: for inhibition at 100 µM: read-out: % inhibition at 100 µM in TEVC WT
Target sequence in this assay (P0DOF5 whole entry, looked up): as the sequence (P0DOF5 whole entry) above

[3] = target: mammalian Na+/H+ exchanger; set-up: method as in PMID 3016497; conditions: read-out: apparent Ki; cited from earlier work
[4] = in vitro; conditions: dog
Method: Cytotoxicity towards MDCK cells was assayed after 48 h drug exposure with the MTT tetrazolium dye assay as described [55].

[5] = tested on: influenza A/Udorn/72 WT virus; assay type: cell-based
[6] = tested on: M2 channel; set-up: method as in PMID 20570509; conditions: weaker than amantadine; cited from earlier work
[7] = read-out: EC50, yeast growth restoration

Row | Compound | EC50 [1, 7] | inhibition at 100 µM [2] | also measured
1 | O=[N+]([O-])c1ccccc1CNC1C2CC3CC(C2)CC1C3 (centres unmarked) [Compound 5, 2-adamantyl (2-nitrobenzyl)amine] | 5000 nM |  | 
2 | CN(C)c1nc(N)c(C(=O)NC(=N)N)nc1Cl [Compound 20, 5-(N,N-Dimethyl)amiloride hydrochloride] |  | 23.3 ± 1.9% | % inhibition at 100 µM in TEVC WT [2]: moderate inhibition
3 | NC(N)=NC(=O)c1nc(Cl)c(N2CCCCCC2)nc1N [Compound 14, Hexamethylene amiloride] |  | 89.9% | Ki [3]: 200 nM; CC50 [4]: 16000 nM; EC50 ([1]; EC50, yeast growth restoration): 1100 nM and 1000 nM
4 | CCSC1=NCN(C2CCCCCCC2)CN1 [Compound 34, 3-cyclooctyl-6-(ethylthio)-1,2,3,4-tetrahydro-1,3,5-triazine] |  | 89.7% | CC50 [4]: 75000 nM; EC50 ([1]; EC50, yeast growth restoration): 300 nM; inhibition of plaque formation [5]: completely inhibited; also recorded: moderate inhibition
5 | 3-(2-methylbut-3-yn-2-yl)-6-(methylthio)-1,2,3,4-tetrahydro-1,3,5-triazine hydroiodide [Compound 27] |  |  | % inhibition at 100 µM in TEVC WT [2]: 17.0 ± 1.9
6 | O=C1NC(=S)NC(=O)C1=CNC12CC3CC(CC(C3)C1)C2 [Compound 1, 5-[(1-adamantylamino)methylene]-2-thioxodihydro-4,6(1H,5H)-pyrimidinedione] | 2500 nM |  | 
7 | C=C1C(N)CC2CC1C2(C)C (stereo not drawn) [Compound 15, 3-amino-beta-pinene] | 500 nM and < 1000 nM |  | 
8 | CCN(c1nc(N)c(C(=O)NC(=N)N)nc1Cl)C(C)C [Compound 21, 5-(N-Ethyl-N-isopropyl)amiloride] |  | 47.3 ± 0.5% | % inhibition at 100 µM in TEVC WT [2]: moderate inhibition
9 | CCSC1=NCN(Cc2ccco2)CN1 [Compound 24, 6-(ethylthio)-3-(furan-2-ylmethyl)-1,2,3,4-tetrahydro-1,3,5-triazine] |  | 17.9 ± 2.8% | 
10 | NC12CC3CC(CC(C3)C1)C2 [Amantadine, reference compound] |  | 92% | CC50 [4]: ~100000 nM; growth of the strain expressing WT M2 ([1]; 0.3 µM amantadine): 65 % of control; growth of the strain expressing WT M2 ([1]; 1 µM amantadine): 95 % of control; growth increase ([1]; 1 µM, 384-well plate assay, yeast expressing WT M2): 3 fold; growth of the strain expressing WT M2 ([1]; 3 µM amantadine): 95 % of control
11 | O=[N+]([O-])c1ccc(CNC23CC4CC(CC(C4)C2)C3)cc1 [Compound 4, 1-adamantyl (4-nitrobenzyl)amine] | 5000 nM | 43.5% | 
12 | c1cc2c(cc1NC1C3CC4CC(C3)CC1C4)OCO2 (centres unmarked) [Compound 3, 2-adamantyl (1,3-benzodioxol-5-yl)amine] | 20000 nM |  | 
13 | Cc1cc(C(=O)NC2C3CC4CC(C3)CC2C4)no1 (centres unmarked) [Compound 11, N-(adamantan-2-yl)-5-methyl-1,2-oxazole-3-carboxamide] | 1500 nM |  | 
14 | CSC1=NCN(Cc2cccs2)CN1 [Compound 23, 6-(methylthio)-3-(thiophen-2-ylmethyl)-1,2,3,4-tetrahydro-1,3,5-triazine] |  | 8.1 ± 1.7% | 
15 | CCc1noc(C)c1C(=O)NCC12CC3CC(CC(C3)C1)C2 [Compound 9, N-(adamantan-1-ylmethyl)-3-ethyl-5-methyl-1,2-oxazole-4-carboxamide] | 800 nM and < 1000 nM |  | 
16 | C1CNC(NCC23CC4CC(CC(C4)C2)C3)=N1 [Compound 12, N-(adamantan-1-ylmethyl)-4,5-dihydro-1H-imidazol-2-amine hydroiodide] | 400 nM and < 1000 nM |  | 
17 | OCC1CCCN1CC12CC3CC(CC(C3)C1)C2 (centres unmarked) [Compound 13, [1-(adamantan-1-ylmethyl)pyrrolidin-2-yl] methanol hydrochloride] | 15000 nM |  | 

Row | Compound | EC50 [1, 7] | inhibition at 100 µM [2] | also measured
18 | Br.CSC1=NCN(CCCO)CN1 [Compound 26, 3-(4-(methylthio)-5,6-dihydro-1,3,5-triazin-1(2H)-yl)propan-1-ol hydrobromide] |  |  | % inhibition at 100 µM in TEVC WT [2]: 5.5 ± 0.9
19 | CCSC1=NCN(Cc2cccs2)CN1 [Compound 29, 6-(ethylthio)-3-(thiophen-2-ylmethyl)-1,2,3,4-tetrahydro-1,3,5-triazine] |  | 6.7 ± 1.4% | 
20 | CCSC1=NCN(CC(C)(C)C)CN1 [Compound 32, 6-(ethylthio)-3-neopentyl-1,2,3,4-tetrahydro-1,3,5-triazine] |  |  | % inhibition at 100 µM in TEVC WT [2]: 4.7 ± 1.3
21 | Cc1ncc(C23CC4CC(CC(C4)C2)C3)[nH]1 [Compound 10, 5-(adamantan-1-yl) -2-methyl-1H-imidazole] |  |  | CC50 [4]: > 100000 nM; EC50 ([1]; EC50, yeast growth restoration): < 1000 nM and 300 nM; inhibition of plaque formation [5]: almost completely inhibited
22 | NC1CCCCCCC1 [Cyclooctylamine] |  |  | binding affinity relative to amantadine [6]: 6 fold
23 | Cn1cccc1CNC1CCCCCCC1 [Compound 19, N-[(1-methyl-1H-pyrrol-2-yl)methyl] cyclooctanamine] | 30000 nM |  | 
24 | CCSC1=NCN(CC(C)C)CN1 [Compound 31, 6-(ethylthio)-3-isobutyl-1,2,3,4-tetrahydro-1,3,5-triazine] |  | 1.2 ± 0.6% | 
25 | CCSC1=NCN(Cc2ccccc2)CN1 [Compound 28, 3-benzyl-6-(ethylthio)-1,2,3,4-tetrahydro-1,3,5-triazine] |  | 5.4 ± 1.6% | 
26 | CC(=O)Nc1ccc(S(=O)(=O)NC23CC4CC(CC(C4)C2)C3)cc1 [Compound 2, N1-(4-[(1-adamantylamino)sulfonyl]phenyl)acetamide] | 5000 nM |  | 
27 | Br.CSC1=NCN(C(C)(C)C)CN1 [Compound 25, 3-(tert-butyl)-6-(methylthio)-1,2,3,4-tetrahydro-1,3,5-triazine hydrobromide] |  |  | % inhibition at 100 µM in TEVC WT [2]: 13.3 ± 1.5
28 | CC(NC(=S)NC(=O)C=Cc1ccco1)C12CC3CC(CC(C3)C1)C2 (centres unmarked) [Compound 6, N-(([1-(1-adamantyl)ethyl]amino)carbonothioyl)-3-(2-furyl)acrylamide] |  |  | CC50 [4]: > 30000 nM; EC50 ([1]; EC50, yeast growth restoration): 200 nM and < 1000 nM; inhibition of plaque formation [5]: almost completely inhibited
29 | CNCC(=O)C12CC3CCC(CC(C3)C1)C2 [Compound 8, 2-(methylamino)-1-tricyclo[4.3.1.1~3,8~] undec-1-ylethanone hydrochloride] | 3000 nM |  | 
30 | CSC1=NCN(Cc2ccccc2)CN1 [Compound 18, 3-benzyl-6-(methylthio)-1,2,3,4-tetrahydro-1,3,5-triazine hydroiodide] | 12000 nM | 4.5% | 
31 | CCSC1=NCN(CCc2cccs2)CN1 [Compound 30, 6-(ethylthio)-3-(2-(thiophen-2-yl)ethyl)-1,2,3,4-tetrahydro-1,3,5-triazine] |  | 1.1 ± 1.1% | 
32 | CS/C(=N/C#N)NC12CC3CC(CC(C3)C1)C2 [Compound 7, (E)-methyl N-((3s,5s,7s)-adamantan-1-yl)-N'-cyanocarbamimidothioate] | 12000 nM |  | 
33 | CCSC1=NCN(CC2CCCCC2)CN1 [Compound 33, 3-(cyclohexylmethyl)-6-(ethylthio)-1,2,3,4-tetrahydro-1,3,5-triazine] | 700 nM | 63.9 ± 2% | 
